Reference: patent publication US7982042B2, “Thiozanthene derivatives as delta-opioid modulators” (priority 2003, dated 2011)
Read-outs that look alike come from different tables or passages of the source.

Experiments:
[1] = target: T1, Rat brain mu opioid receptor (Rattus norvegicus, UniProt P33535); assay: Rat brain mu opioid receptor binding assay ([3H]DAMGO)
T1 construct: from tissue; host or cells: forebrain of male Sprague Dawley rats
Method: • Procedure: Male, Sprague Dawley (150-250 g, VAF, Charles River, Kingston, N.Y.) are killed by CO2, and their brains removed and placed immediately in ice cold Tris HCl buffer (50 mM, pH 7.4). The forebrains are separated from the remainder of the brain by a coronal transection, beginning dorsally at the colliculi and passing ventrally through the midbrain-pontine junction. After dissection, the forebrains are homogenized in Tris buffer in a Teflon®-glass homogenizer. The homogenate is diluted to a concentration of 1 g of forebrain tissue per 80 mL Tris and centrifuged at 39,000×g for 10 min. The pellet is resuspended in the same volume of Tris buffer containing 5 mM MgCl2 with several brief pulses from a Polytron homogenizer. This particulate preparation is used for the mu-opioid binding assays. […] Kd and Ki values are calculated using GraphPad PRISM data analysis program.

[2] = target: T2, Rat brain delta opioid receptor (Rattus norvegicus, UniProt P33533); assay: Rat brain delta opioid receptor binding
T2 construct: from tissue; host or cells: rat brain

[3] = target: T3, human delta opioid receptor (Homo sapiens, UniProt P41143); assay: [35S]GTPγS binding assay in CHO-hδ cell membranes; format: biochemical; details: hDOR GTPγS EC50, human delta opioid receptor GTPγS functional assay
T3 construct: purchased Receptor Biology, Inc. (Baltimore, Md.); host or cells: CHO cells expressing the human delta receptor (membranes)
Method: CHO-hδ cell membranes are purchased from Receptor Biology, Inc. (Baltimore, Md.). 10 mg/ml of membrane protein is suspended in 10 mM TRIS-HC pH 7.2, 2 mM EDTA, 10% sucrose.
Membranes are maintained at 4-8° C. 1 ml of membranes is added into 15 ml cold binding assay buffer. The assay buffer contained 50 mM HEPES, pH 7.6, 5 mM MgCl2, 100 mM NaCl, 1 mM DTT and 1 mM EDTA. The membrane suspension is homogenized with a Polytron 2 times and centrifuged at 3000 rpm for 10 min. The supernatant is then centrifuged at 18,000 rpm for 20 min. The pellet is saved in a tube and 10 ml assay buffer is added into the tube. The pellet and buffer are mixed with a Polytron.
The pellet membranes (20 μg/ml) are preincubated with SPA (10 mg/ml) at 25° C. for 45 min in the assay buffer. The SPA (5 mg/ml) coupled with membranes (10 μg/ml) is then incubated with 0.5 nM [^35S]GTPgS in the same HEPES buffer containing 50 μM GDP in total volume of 200 μl. Increasing concentrations of receptor agonists are used to stimulate [^35S]GTPgS binding. The basal binding is tested in the absence of agonists and non-specific binding is tested in the presence of 10 μM unlabeled GTP S. The data are analyzed on a Top counter.

T1 sequence (P33535 whole entry): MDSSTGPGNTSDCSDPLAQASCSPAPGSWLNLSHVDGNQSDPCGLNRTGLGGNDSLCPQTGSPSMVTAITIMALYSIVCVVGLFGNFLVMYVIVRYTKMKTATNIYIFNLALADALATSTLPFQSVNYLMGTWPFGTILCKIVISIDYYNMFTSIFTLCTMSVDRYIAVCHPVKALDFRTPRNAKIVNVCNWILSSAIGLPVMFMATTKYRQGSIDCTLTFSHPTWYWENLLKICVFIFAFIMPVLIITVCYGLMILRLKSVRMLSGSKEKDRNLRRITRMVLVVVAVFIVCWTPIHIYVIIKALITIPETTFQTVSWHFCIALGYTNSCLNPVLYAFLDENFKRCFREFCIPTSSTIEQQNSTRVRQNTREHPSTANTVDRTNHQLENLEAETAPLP
T3 sequence (P41143 whole entry): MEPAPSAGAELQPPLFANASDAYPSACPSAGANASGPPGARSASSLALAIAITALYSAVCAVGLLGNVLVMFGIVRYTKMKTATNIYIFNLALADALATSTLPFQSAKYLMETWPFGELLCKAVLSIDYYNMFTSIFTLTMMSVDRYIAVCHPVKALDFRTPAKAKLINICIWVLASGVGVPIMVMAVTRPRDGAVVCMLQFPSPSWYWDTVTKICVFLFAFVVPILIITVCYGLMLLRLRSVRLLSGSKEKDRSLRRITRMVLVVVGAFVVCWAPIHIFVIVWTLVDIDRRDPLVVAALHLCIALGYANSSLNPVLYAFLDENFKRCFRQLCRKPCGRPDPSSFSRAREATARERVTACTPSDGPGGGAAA
T2 sequence (P33533 whole entry): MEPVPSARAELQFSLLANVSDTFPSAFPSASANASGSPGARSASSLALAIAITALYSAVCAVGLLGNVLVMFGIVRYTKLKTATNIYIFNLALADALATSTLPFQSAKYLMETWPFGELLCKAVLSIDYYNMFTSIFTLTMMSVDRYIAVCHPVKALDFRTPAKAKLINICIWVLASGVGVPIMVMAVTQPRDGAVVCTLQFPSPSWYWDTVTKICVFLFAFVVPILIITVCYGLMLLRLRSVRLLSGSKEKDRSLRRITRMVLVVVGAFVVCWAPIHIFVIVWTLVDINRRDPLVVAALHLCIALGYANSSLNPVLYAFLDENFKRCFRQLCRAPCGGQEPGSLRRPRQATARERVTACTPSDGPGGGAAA

| SMILES | Ki ([1]; read-out: rMOR Ki) | Ki ([2]; read-out: rDOR Ki) | Ki ([1]; rMOR Ki) | Ki ([2]; rDOR Ki) | EC50 [3] |
| --- | --- | --- | --- | --- | --- |
| CCNC(=O)c1ccc2c(c1)OCc1ccccc1C2=C1CCN(Cc2cccs2)CC1 [Compound 13] | 1.9 µM | 0.143 µM | – | – | – |
| CCN(CC)C(=O)c1ccc2c(c1)Oc1ccc(NC(C)=O)cc1C2=C1CCNCC1 [Compound 34, 7-Acetylamino-9-piperidin-4-ylidene-9H-xanthene-3-carboxylic acid diethylamide] | > 10 µM | > 10 µM | – | – | – |
| CCNC(=O)c1ccc2c(c1)OCc1ccccc1C2=C1CCN(CCc2ccccc2)CC1 [Compound 20] | 0.248 µM | 23.3 µM | – | – | – |
| CN(C)C(=O)c1ccc2c(c1)Oc1ccccc1C2=C1CC2CCC(C1)N2 [Compound 57] | – | – | 5.26 µM | 0.397 µM | – |
| CCN(CC)C(=O)c1ccc2c(c1)Oc1ccccc1C2=C1CC2CCC(C1)N2CCOC [Compound 39, 9-[8-(2-Methoxy-ethyl)-8-aza-bicyclo[3.2.1]oct-3-ylidene]-9H-xanthene-3-carboxylic acid diethylamide] | – | – | 1.68 µM | 0.00843 µM | 0.0949 µM |
| CCN(CC)C(=O)c1ccc2c(c1)Oc1c(cccc1-c1ccccc1)C2=C1CC2CCC(C1)N2 [Compound 95, 9-(8-Aza-bicyclo[3.2.1]oct-3-ylidene)-5-phenyl-9H-xanthene-3-carboxylic acid diethylamide] | – | – | 6.52 µM | 0.0254 µM | – |
| CCN(CC)C(=O)c1ccc2c(c1)Sc1ccccc1C2=C1CC2CCC(C1)N2Cc1c[nH]cn1 [Compound 74] | – | – | 0.848 µM | 0.00379 µM | – |
| CC(C)NC(=O)c1ccc2c(c1)Oc1ccccc1C2=C1CC2CCC(C1)N2 [Compound 58] | – | – | 2.98 µM | 1.16 µM | – |
| C=CCN1C2CCC1CC(=C1c3ccccc3Oc3cc(C(=O)N(CC)CC)ccc31)C2 [Compound 38, 9-(8-Allyl-8-aza-bicyclo[3.2.1]oct-3-ylidene)-9H-xanthene-3-carboxylic acid diethylamide] | – | – | 5.52 µM | 0.0318 µM | 0.342 µM |
| C=C(C)CN1CCC(=C2c3ccccc3COc3cc(C(=O)NCC)ccc32)CC1 [Compound 14] | 4.82 µM | 0.432 µM | – | – | – |
| CCNC(=O)c1ccc2c(c1)OCc1ccccc1C2=C1CCN(C(=O)OCC(Cl)(Cl)Cl)CC1 [Compound 10, 4-(3-Ethylcarbamoyl-6H-dibenzo[b,e]oxepin-11-ylidene) -piperidine-1-carboxylic acid 2,2,2-trichloro-ethyl ester] | 92.5 µM | > 100 µM | – | – | – |
| CCNC(=O)c1ccc2c(c1)Sc1ccccc1C2=C1CC2CCC(C1)N2 [Compound 81] | – | – | 0.838 µM | 0.0776 µM | – |
| CCNC(=O)c1ccc2c(c1)OCc1ccccc1C2=C1CCNCC1 [Compound 11, 11-Piperidin-4-ylidene-6,11-dihydro-dibenzo[b,e]oxepine-3-carboxylic acid ethylamide] | 5.66 µM | 0.317 µM | – | – | – |
| CCNC(=O)c1ccc2c(c1)Sc1ccccc1C2=C1CC2CCC(C1)N2 [Compound 80] | – | – | 0.473 µM | 0.26 µM | – |
| CCN(CC)C(=O)c1ccc2c(c1)Oc1c(F)cccc1C2=C1CC2CCC(C1)N2 [Compound 102] | – | – | 2.86 µM | 0.068 µM | – |
| CCN(CC)C(=O)c1ccc2c(c1)Oc1ccccc1C2C1CCN(C)CC1 (stereo not drawn) [Compound 43, 9-(1-Methylpiperidin-4-yl)-9H-xanthene-3-carboxylic acid diethylamide] | – | – | > 10 µM | – | – |
| CCN(CC)C(=O)c1ccc2c(c1)Sc1ccccc1C2=C1CC2CCC(C1)N2CCCSC [Compound 50] | – | – | > 0.1 µM | 0.0102 µM | 0.236 µM |
| CCCN(CCC)C(=O)c1ccc2c(c1)Oc1ccccc1C2=C1CC2CCC(C1)N2 [Compound 60] | – | – | 0.836 µM | 0.00462 µM | – |
| CCN(CC)C(=O)c1ccc2c(c1)Oc1ccccc1C2=C1CC2CCC(C1)N2C [Compound 23, 9-(8-Methyl-8-aza-bicyclo[3.2.1]oct-3-ylidene)-9H-xanthene-3-carboxylic acid diethylamide] | – | – | 5.56 µM | 0.0484 µM | 0.245 µM |
| CCNC(=O)c1ccc2c(c1)Oc1ccccc1C2=C1CCNCC1 [Compound 32, 9-Piperidin-4-ylidene-9H-xanthene-3-carboxylic acid ethylamide] | 1.49 µM | – | – | 0.073 µM | – |
| CCN(CC)C(=O)c1ccc2c(c1)Oc1ccc(-c3ccoc3)cc1C2=C1CC2CCC(C1)N2 [Compound 86] | – | – | 12.5 µM | 1.76 µM | – |

| SMILES | Ki ([1]; read-out: rMOR Ki) | Ki ([2]; read-out: rDOR Ki) | Ki ([1]; rMOR Ki) | Ki ([2]; rDOR Ki) | EC50 [3] |
| --- | --- | --- | --- | --- | --- |
| CCN(CC)C(=O)c1ccc2c(c1)Oc1ccc(NC(C)=O)cc1C2=C1CCN(C)CC1 [Compound 41, 7-Acetylamino-9-(1-methyl-piperidin-4-ylidene)-9H-xanthene-3-carboxylic acid diethylamide] | > 10 µM | 5.2 µM | – | – | – |
| CCN(CC)C(=O)c1ccc2c(c1)OCc1ccccc1C2=C1CCNCC1 [Compound 2] | – | – | 2.63 µM | 0.00091 µM | 0.0586 µM |
| CCNC(=O)c1ccc2c(c1)OCc1ccccc1C2=C1CCN(C)CC1 [Compound 9, 11-(1-Methyl-piperidin-4-ylidene)-6,11-dihydro-dibenzo[b,e]oxepine-3-carboxylic acid ethylamide] | > 100 µM | > 100 µM | – | – | – |
| CCN(CC)C(=O)c1ccc2c(c1)Sc1ccccc1C2=C1CC2CCC(C1)N2 [Compound 48, 9-(8-Aza-bicyclo[3.2.1]oct-3-ylidene)-9H-thioxanthene-3-carboxylic acid diethylamide] | – | – | > 0.1 µM | 0.0009 µM | 0.0188 µM |
| CCN(CC)C(=O)c1ccc2c(c1)Oc1ccc(Br)cc1C2=C1CC2CCC(C1)N2 [Compound 83] | – | – | 17.7 µM | 0.139 µM | – |
| C=CCN1CCC(=C2c3ccccc3COc3cc(C(=O)NCC)ccc32)CC1 [Compound 19, 11-(1-Allyl-piperidin-4-ylidene)-6,11-dihydro-dibenzo[b,e]oxepine-3-carboxylic acid ethylamide] | 2.87 µM | 0.368 µM | – | – | – |
| CCNC(=O)c1ccc2c(c1)OCc1ccccc1C2=C1CCN(Cc2ccc(O)c(OC)c2)CC1 [Compound 18] | 2.42 µM | 2 µM | – | – | – |
| CCN(CC)C(=O)c1ccc2c(c1)Oc1ccc(-c3ccsc3)cc1C2=C1CC2CCC(C1)N2 [Compound 90] | – | – | 12.4 µM | 0.836 µM | – |
| CCN(CC)C(=O)c1ccc2c(c1)Oc1ccc(-c3ccncc3)cc1C2=C1CC2CCC(C1)N2 [Compound 85] | – | – | 10.7 µM | 3 µM | – |
| CCN(CC)C(=O)c1ccc2c(c1)Oc1c(cccc1-c1cnc3ccccc3c1)C2=C1CC2CCC(C1)N2 [Compound 98] | 7.36 µM | – | – | 0.0245 µM | – |
| CCN(CC)C(=O)c1ccc2c(c1)Oc1ccc(C)cc1C2=C1CC2CCC(C1)N2 [Compound 67] | – | – | 10.9 µM | 0.0544 µM | – |
| CC(C)CN(C)C(=O)c1ccc2c(c1)Oc1ccccc1C2=C1CC2CCC(C1)N2 [Compound 59] | – | – | 3.34 µM | 0.0106 µM | – |
| CCNC(=O)c1ccc2c(c1)Oc1ccccc1C2=C1CC2CCC(C1)N2 (single isomer, unassigned) [Compound 56] | 0.712 µM | 0.161 µM | – | – | – |
| NC(=O)c1ccc2c(c1)Oc1ccccc1C2=C1CC2CCC(C1)N2 [Compound 65] | – | – | 0.858 µM | 0.197 µM | – |
| CCNC(=O)c1ccc2c(c1)Oc1ccccc1C2=C1CC2CCC(C1)N2CCc1ccccc1 [Compound 27] | 0.189 µM | 0.209 µM | – | – | – |
| CCN(CC)C(=O)c1ccc2c(c1)Oc1cc(OC)ccc1C2=C1CC2CCC(C1)N2 [Compound 70, 9-(8-Aza-bicyclo[3.2.1]oct-3-ylidene)-6-methoxy-9H-xanthene-3-carboxylic acid diethylamide] | – | – | 5.74 µM | 0.00231 µM | – |
| C#CCN1CCC(=C2c3ccccc3Oc3cc(C(=O)N(CC)CC)ccc32)CC1 [Compound 33, 9-(1-Prop-2-ynyl-piperidin-4-ylidene)-9H-xanthene-3-carboxylic acid diethylamide] | – | – | 5.42 µM | 0.0165 µM | – |
| CCN(CC)C(=O)c1ccc2c(c1)Oc1ccc(-c3ccc[nH]3)cc1C2=C1CC2CCC(C1)N2 [Compound 93] | – | – | > 10 µM | > 10 µM | – |
| CCCNC(=O)c1ccc2c(c1)Oc1ccccc1C2=C1CC2CCC(C1)N2 [Compound 63] | – | – | 1.73 µM | 0.107 µM | – |
| CNC(=O)c1ccc2c(c1)Oc1ccccc1C2=C1CC2CCC(C1)N2 [Compound 64] | – | – | 0.711 µM | 0.118 µM | – |
